Measurements: the Kinase Knowledgebase extract (Sharma et al. 2016)

Tests used:
[1] = target: PIK3CD (Human) (UniProt O00329); assay: Assessment of PIK3CD Kinase Activity
[2] = target: PIK3CA (human) (UniProt P42336); assay: Assessment of PIK3CA Kinase Activity
[3] = target: PIK3CB (Human) (UniProt P42338); assay: Assessment of PIK3CB Kinase Activity
[4] = target: PIK3CG (human) (UniProt P48736); assay: Assessment of PIK3CG Kinase Activity
Chain of PIK3CG (human) (P48736 whole entry, looked up): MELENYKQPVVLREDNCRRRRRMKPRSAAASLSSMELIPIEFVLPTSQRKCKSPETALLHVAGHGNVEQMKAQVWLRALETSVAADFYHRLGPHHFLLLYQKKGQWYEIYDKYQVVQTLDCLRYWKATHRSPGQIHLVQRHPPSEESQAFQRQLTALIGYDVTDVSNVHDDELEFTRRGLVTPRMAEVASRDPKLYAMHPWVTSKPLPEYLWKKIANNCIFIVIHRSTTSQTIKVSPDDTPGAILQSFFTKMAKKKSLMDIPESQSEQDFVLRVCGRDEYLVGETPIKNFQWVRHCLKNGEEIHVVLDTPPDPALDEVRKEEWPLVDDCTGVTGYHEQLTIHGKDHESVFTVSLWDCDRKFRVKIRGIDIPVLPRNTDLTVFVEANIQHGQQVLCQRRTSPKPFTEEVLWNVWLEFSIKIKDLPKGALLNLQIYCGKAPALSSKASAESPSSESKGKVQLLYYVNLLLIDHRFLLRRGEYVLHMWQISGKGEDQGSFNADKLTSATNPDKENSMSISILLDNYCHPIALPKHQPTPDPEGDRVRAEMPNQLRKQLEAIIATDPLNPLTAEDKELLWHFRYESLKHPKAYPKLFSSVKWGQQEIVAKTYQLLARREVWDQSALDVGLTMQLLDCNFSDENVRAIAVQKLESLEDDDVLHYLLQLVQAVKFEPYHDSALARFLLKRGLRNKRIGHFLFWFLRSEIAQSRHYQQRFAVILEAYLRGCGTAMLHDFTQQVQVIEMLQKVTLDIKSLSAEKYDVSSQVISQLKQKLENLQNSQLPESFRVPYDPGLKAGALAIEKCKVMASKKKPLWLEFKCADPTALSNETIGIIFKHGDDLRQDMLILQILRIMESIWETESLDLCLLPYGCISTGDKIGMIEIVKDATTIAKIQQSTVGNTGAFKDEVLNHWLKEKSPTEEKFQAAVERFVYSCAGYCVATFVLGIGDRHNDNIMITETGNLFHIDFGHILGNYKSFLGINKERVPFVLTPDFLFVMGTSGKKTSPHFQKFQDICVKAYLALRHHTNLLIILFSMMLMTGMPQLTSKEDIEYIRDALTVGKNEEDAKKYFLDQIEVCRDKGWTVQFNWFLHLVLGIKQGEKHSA

Chain of PIK3CD (Human) (O00329 whole entry, looked up): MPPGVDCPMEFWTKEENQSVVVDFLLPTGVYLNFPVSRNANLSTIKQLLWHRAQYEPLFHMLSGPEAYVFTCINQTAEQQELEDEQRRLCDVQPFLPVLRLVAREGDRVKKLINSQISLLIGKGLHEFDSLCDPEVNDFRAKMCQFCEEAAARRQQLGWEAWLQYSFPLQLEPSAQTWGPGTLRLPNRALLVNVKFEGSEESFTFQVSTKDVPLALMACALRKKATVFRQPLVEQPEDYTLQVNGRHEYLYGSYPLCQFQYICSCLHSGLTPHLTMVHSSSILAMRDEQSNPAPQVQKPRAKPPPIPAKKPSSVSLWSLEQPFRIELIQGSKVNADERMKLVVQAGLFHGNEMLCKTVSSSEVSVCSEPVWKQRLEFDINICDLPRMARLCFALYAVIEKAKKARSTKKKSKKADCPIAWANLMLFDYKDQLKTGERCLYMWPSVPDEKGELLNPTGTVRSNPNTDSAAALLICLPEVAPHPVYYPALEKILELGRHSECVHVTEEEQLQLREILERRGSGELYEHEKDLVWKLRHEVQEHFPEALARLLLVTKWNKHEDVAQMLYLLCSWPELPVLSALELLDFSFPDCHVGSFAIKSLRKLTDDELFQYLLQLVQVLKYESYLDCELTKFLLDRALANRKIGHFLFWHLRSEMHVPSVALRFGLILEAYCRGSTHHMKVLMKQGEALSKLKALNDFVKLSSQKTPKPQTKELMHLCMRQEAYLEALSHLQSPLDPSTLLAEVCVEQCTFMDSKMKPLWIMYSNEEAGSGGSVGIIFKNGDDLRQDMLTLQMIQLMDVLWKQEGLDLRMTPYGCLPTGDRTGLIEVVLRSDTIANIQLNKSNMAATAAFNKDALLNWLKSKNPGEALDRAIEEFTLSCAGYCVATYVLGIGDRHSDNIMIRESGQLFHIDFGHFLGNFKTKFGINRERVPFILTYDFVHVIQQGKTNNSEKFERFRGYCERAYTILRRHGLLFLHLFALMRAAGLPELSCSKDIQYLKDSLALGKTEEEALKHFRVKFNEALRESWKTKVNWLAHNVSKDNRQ
Chain of PIK3CA (human) (P42336 whole entry, looked up): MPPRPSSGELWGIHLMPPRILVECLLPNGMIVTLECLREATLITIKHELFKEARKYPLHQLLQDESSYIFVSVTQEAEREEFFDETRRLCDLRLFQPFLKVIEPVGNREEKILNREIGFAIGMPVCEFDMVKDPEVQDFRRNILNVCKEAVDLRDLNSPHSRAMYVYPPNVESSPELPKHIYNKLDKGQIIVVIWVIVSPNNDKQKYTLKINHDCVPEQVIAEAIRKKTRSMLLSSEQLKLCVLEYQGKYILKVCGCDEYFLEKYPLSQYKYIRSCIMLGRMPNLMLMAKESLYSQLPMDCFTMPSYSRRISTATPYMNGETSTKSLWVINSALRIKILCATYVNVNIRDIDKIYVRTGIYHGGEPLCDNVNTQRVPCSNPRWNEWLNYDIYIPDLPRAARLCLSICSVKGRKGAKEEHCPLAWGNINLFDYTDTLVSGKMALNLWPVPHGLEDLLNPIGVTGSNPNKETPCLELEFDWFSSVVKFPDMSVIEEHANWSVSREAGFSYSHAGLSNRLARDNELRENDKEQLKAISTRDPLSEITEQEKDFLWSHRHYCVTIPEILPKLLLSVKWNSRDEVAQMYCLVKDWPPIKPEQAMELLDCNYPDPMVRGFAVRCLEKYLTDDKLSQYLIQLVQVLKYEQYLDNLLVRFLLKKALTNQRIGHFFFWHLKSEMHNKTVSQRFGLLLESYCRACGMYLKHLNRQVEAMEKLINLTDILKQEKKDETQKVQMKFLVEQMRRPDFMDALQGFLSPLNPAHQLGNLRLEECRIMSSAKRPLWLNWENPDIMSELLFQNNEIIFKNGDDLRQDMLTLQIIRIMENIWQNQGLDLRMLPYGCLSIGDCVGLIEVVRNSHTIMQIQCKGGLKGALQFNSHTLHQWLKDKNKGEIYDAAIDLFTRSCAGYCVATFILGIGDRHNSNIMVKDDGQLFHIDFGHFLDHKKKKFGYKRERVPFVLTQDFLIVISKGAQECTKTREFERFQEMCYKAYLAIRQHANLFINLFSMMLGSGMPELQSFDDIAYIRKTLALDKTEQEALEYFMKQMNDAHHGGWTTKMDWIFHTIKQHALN
Chain of PIK3CB (Human) (P42338 whole entry, looked up): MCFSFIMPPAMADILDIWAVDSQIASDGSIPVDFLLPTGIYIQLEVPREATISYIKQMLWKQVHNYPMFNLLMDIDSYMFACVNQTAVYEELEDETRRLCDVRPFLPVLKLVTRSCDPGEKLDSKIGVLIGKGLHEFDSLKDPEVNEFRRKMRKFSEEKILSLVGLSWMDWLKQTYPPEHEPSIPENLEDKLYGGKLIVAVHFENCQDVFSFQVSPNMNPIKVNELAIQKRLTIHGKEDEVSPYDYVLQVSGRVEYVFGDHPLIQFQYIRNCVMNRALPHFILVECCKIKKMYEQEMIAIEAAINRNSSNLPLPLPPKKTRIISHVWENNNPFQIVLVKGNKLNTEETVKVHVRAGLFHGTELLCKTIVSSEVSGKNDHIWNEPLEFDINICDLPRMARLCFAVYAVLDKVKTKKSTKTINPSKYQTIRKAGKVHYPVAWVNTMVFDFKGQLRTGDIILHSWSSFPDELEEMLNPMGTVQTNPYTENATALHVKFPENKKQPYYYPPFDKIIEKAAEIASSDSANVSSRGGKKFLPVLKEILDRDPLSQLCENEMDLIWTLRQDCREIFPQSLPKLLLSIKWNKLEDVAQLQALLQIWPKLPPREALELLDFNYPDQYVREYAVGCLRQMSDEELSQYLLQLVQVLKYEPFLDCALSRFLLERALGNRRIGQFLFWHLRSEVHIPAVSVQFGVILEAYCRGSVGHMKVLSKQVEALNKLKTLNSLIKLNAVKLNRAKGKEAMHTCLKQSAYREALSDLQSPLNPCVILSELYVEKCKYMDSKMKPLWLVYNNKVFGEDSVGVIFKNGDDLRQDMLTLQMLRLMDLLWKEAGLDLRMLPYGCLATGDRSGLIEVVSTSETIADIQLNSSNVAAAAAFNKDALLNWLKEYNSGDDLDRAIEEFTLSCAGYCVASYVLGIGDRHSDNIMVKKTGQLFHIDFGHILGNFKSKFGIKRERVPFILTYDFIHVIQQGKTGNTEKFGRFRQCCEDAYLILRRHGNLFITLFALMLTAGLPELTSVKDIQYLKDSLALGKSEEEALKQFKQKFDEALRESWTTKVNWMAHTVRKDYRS

Structure (SMILES): C[C@H]1COCCN1c1nc(-c2ccc(NC(=O)NCCCO)cc2)nc2c1CN(C)C2
- IC50 [1]: > 10 µM

Structure (SMILES): COCCCNC(=O)Nc1ccc(-c2nc3c(c(N4CCOC[C@@H]4C)n2)CN(C)C3)cc1
- IC50 [1]: > 10 µM

Structure (SMILES): COC(=O)N1Cc2nc(-c3ccc(NC(=O)NCCF)cc3F)nc(N3CCOCC3)c2C1
- IC50 [2]: > 10 µM
- IC50 [1]: > 10 µM
- IC50 [3]: > 10 µM
- IC50 [4]: > 10 µM

Structure (SMILES): C[C@H]1COCCN1c1nc(-c2ccc(NC(=O)NCCN(C)C)cc2)nc2c1CN(C)C2
- IC50 [2]: 0.1 to 1 µM
- IC50 [1]: 0.1 to 1 µM
- IC50 [3]: 0.1 to 1 µM

Structure (SMILES): C[C@H]1COCCN1c1nc(-c2ccc(NC(=O)NC3CCC3)cc2)nc2c1CN(C)C2
- IC50 [1]: > 10 µM
